In PMC4861662 (ChemMedChem, 2016):
Where two headings read alike, the source gives them in different places.

Key:
[1] = Phase solubility diagram; details: for Highest drug concentration achieved with container / Initial slope of the PSD / Krel / Ka of container•drug complex: container M2C2; for Initial slope of the PSD: 20 mM sodium phosphate buffered D2O, pD 7.4, rt; for Krel: referenced to the weakest binding container (generally HP-β-CD); for Ka of container•drug complex: from PSD slope and S0 (equation 1)
[2] = container M2, ref [20a],[21a], cited from earlier work; for Initial slope of the PSD: 20 mM sodium phosphate buffered D2O, pD 7.4, rt; for Krel: referenced to the weakest binding container (generally HP-β-CD), TL = too large to be determined because slope ≈ 1
[3] = Phase solubility diagram; details: for Highest drug concentration achieved with container / Initial slope of the PSD / Ka of container•drug complex: container SBE-β-CD; for Initial slope of the PSD: 20 mM sodium phosphate buffered D2O, pD 7.4, rt; for Ka of container•drug complex: from PSD slope and S0 (equation 1)
[4] = Phase solubility diagram; details: container M2
[5] = container HP-β-CD; from PSD slope and S0 (equation 1); ref [20a],[21a]; cited from earlier work
[6] = Phase solubility diagram; details: for Initial slope of the PSD / Ka of container•drug complex / Krel: container M2C4; for Initial slope of the PSD: 20 mM sodium phosphate buffered D2O, pD 7.4, rt, Gel = gel formed; for Ka of container•drug complex: from PSD slope and S0 (equation 1); for Krel: referenced to the weakest binding container (generally HP-β-CD)
[7] = Inherent solubility of the drug; details: 20 mM sodium phosphate buffered D2O, pD 7.4, rt
[8] = Inherent solubility of container by 1H NMR assay of saturated solution; type: physicochemical; details: SBE-β-CD

Molecule	Highest drug concentration achieved with container [1] [mM]	Initial slope of the PSD [1]	Krel [1]	Initial slope of the PSD [2]	Krel [2]	Highest drug concentration achieved with container [3] [mM]	Initial slope of the PSD [3]	Highest drug concentration achieved with container [4] [mM]	Ka of container•drug complex [1] [M⁻¹]	Ka of container•drug complex [5] [M⁻¹]	Ka of container•drug complex [3] [M⁻¹]	concentration of M2C4 above which gels form with drug ([6]; M2C4 used as solubilizing agent)	Initial slope of the PSD [6]	Ka of container•drug complex [6] [M⁻¹]	Krel [6]	S0, inherent solubility of the drug [7] [mM]	gel formation ([1]; 68 mM container M2C2)	gel formation ([6]; 68 mM container M2C4)	inherent solubility of container [8] [mM]	average Krel relative to HP-β-CD ([3]; SBE-β-CD versus HP-β-CD, averaged over drugs of the test set)
COc1cc2c(cc1O)CC[C@@H]1[C@@H]2CC[C@]2(C)[C@@H](O)CC[C@@H]12 [2-Methoxy estradiol]	34.1	0.49	12/–	0.79	47/–	35.9	0.21	6.42												
CCCSc1ccc2nc(NC(=O)OC)[nH]c2c1 [Albendazole]	2.78	0.035	2.4	0.48	62	3.94	0.027	4.48	14000	5400	11000									
CCCCc1oc2ccccc2c1C(=O)c1cc(I)c(OCCN(CC)CC)c(I)c1 [Amiodarone]		0.65	19	1.03			0.60		28000	1500	23000	greater than 16 mM								
O=C1CCc2ccc(OCCCCN3CCN(c4cccc(Cl)c4Cl)CC3)cc2N1 [Aripiprazole]	9.26	0.28	7.7	0.31	8.8	8.44	0.048	3.20	17000		2200									
CC[C@@]1(O)C(=O)OCc2c1cc1n(c2=O)Cc2cc3ccccc3nc2-1 [Camptothecin]	28.3	0.41	1	1.1		0	0	11.6	13000											
C(=C\c1ccccc1)/CN1CCN(C(c2ccccc2)c2ccccc2)CC1 [Cinnarizine]		0.26	170				0.008		25000		580									
C[C@]12CC[C@@H]3c4ccc(O)cc4CC[C@H]3[C@@H]1CC[C@@H]2O [Estradiol]		0.67	9.1	0.92	51		0.59		230000	26000	170000		0.59	160000	6.5					
C#C[C@]1(O)CC[C@H]2[C@@H]3CCc4cc(O)ccc4[C@H]3CC[C@@]21C [Ethynyl Estradiol]	33.6			1.1		131		10.5		36000										
COc1ccc2c(c1)c(CC(=O)O)c(C)n2C(=O)c1ccc(Cl)cc1 [Indomethacin]	6.69	0.13	11	0.47	67	9.92	0.23	6.70	25000	2400	51000									
N[C@@H](Cc1ccc(N(CCCl)CCCl)cc1)C(=O)O [Melphalan]	38.2	0.43	6.0/–	1.1		87.8	0.50	16.1												
O=C(NC1=CC(=O)[C@H]2O[C@H]2[C@H]1O)c1cc2ccccc2[nH]c1=O [PBS-1086]	16.5	0.70	1	0.89	3.5	0	0	12.5	510000							0.0045				
CC/C(=C(\c1ccccc1)c1ccc(OCCN(C)C)cc1)c1ccccc1 [Tamoxifen]				0.10	3.9					2400										
Cc1c(Cl)cccc1Nc1ccccc1C(=O)O [Tolfenamic acid]	6.79	0.11	16	0.54	150	8.07	0.11	5.6	66000	4100	64000									
C[C@@H](c1ncncc1F)[C@](O)(Cn1cncn1)c1ccc(F)cc1F [Voriconazole]	61.9	0.89	29			94.7	0.53	9.23	210000		30000		0.85	140000	19		no evidence of gel formation	no evidence of gel formation		
sulfobutylether-β-cyclodextrin [SBE-β-CD]																			> 175	12
